Data as given in patent US12649750B2, “Macrocyclic compounds, compositions, and methods of using thereof” (Sionna Therapeutics Inc., priority 2022, dated 2026).

How the values were obtained:
NBD1 = target: T1, NBD1 (Homo sapiens, UniProt P13569); test: Aggregation analysis using differential static light scattering (DSLS), thermal stability of NBD1 (ΔTagg); format: binding; conditions: ΔTagg versus DMSO control, NBD1 0.2 mg/ml
T1 construct: Purified recombinant NBD1 was produced using previously described methods; made in house
Summary of the method: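 Differential static light scattering read from 25° C. to 70° C. every 0.5° C., ramp 1° C./min, on recombinant NBD1 (0.2 mg/ml; Tris/NaCl/MgCl2 buffer with 2 mM ATP, 2 mM DTT, pH 7.6, 1% glycerol) plus compound. Reported ΔTagg subtracts averaged DMSO Tagg from inflection-point Tagg; categories A ≤5, B >5-10, C >10-25° C.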

CFTR = target: T2, CFTR (Homo sapiens, UniProt P13569, DEL508-508); test: TECC24 AUC fold over DMSO @10 μM, CFTR-mediated transepithelial chloride transport in CF-HBE cells; format: cell-based; conditions: test agent AUC divided by DMSO vehicle AUC, primary CF-HBE cells, ΔF508 homozygous donor, 48 hours incubation
T2 construct: Primary human bronchial epithelial cells from a ΔF508 homozygous CF donor; host or cells: primary human bronchial epithelial cells (CF-HBE), ΔF508 homozygous donor
Summary of the method: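 Value is ratio of test-agent to DMSO AUC of equivalent transepithelial Cl− current, integrated from forskolin (10 μM) stimulation to CFTR inhibitor-172 (20 μM) block, with benzamil 10 μM present. CF-HBE (ΔF508/ΔF508) cultures had 48 h compound exposure at 10 μM, 36.5° C before recording.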

T1 sequence (P13569 423-646 limits assumed): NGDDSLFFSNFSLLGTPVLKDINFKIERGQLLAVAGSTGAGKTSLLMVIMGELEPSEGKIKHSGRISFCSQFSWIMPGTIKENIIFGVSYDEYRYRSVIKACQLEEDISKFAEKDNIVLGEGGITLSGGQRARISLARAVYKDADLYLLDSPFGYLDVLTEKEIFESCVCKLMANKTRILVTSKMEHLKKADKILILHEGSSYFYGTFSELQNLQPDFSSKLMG
T2 sequence (P13569 with tags, fused parts or gaps DEL508-508): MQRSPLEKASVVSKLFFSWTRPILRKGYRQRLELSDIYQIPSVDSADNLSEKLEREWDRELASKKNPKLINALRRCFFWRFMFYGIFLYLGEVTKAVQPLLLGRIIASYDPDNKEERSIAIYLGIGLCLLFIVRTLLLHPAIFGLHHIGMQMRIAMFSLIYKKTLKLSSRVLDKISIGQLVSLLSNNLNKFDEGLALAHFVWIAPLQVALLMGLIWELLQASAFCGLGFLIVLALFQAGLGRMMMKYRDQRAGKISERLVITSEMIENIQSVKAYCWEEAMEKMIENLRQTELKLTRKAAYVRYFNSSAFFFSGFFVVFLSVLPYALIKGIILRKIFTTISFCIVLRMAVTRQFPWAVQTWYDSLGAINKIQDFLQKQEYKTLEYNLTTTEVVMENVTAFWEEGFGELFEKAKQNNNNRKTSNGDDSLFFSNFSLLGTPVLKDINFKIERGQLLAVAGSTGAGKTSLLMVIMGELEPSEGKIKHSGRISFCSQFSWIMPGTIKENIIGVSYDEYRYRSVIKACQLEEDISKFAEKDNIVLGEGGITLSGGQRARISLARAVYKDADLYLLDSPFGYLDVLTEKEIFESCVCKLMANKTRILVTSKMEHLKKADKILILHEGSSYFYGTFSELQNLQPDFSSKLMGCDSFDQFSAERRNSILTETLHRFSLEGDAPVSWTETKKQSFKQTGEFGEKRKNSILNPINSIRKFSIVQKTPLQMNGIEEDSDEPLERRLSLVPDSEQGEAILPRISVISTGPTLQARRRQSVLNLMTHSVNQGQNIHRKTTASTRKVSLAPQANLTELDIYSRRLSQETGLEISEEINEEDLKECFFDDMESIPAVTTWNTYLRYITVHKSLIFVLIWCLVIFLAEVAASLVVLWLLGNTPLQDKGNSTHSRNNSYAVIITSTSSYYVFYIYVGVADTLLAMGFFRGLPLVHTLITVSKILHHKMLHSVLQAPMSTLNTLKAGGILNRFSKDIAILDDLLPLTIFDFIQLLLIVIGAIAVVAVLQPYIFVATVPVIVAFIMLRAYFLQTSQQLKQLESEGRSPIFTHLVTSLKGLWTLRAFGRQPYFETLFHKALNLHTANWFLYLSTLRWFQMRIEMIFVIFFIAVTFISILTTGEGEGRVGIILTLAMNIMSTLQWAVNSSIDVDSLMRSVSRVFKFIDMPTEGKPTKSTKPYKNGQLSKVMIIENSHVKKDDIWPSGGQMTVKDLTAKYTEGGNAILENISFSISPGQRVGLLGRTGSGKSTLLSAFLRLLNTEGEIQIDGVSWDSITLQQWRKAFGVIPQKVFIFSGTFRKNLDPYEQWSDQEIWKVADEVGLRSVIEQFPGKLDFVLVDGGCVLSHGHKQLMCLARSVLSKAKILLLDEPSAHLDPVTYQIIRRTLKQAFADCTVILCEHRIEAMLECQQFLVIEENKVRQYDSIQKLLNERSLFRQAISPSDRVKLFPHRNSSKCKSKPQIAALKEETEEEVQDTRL

C[C@H](O)Cc1cccc([C@@]2(C)CCCC(C)(C)CS(=O)(=O)CCc3c(c(F)cc4[nH]ccc34)[S+]([O-])c3ccc(F)c(c3)-c3nc2nn3C)c1 (single isomer, unassigned) [Compound 237B]
DSLS 3D (100 μM ΔT) (NBD1): C (a value greater than 10 °C and less than or equal to 25 °C is marked “C”) | TECC (AUC, 10 μM) (CFTR): C (a value between 20 and 80 is marked “C”)

[2H]C([2H])([2H])C1(c2cccc(/C=C(\C)C(=O)O)c2)CCCC(C)(C)CS(=O)(=O)CCc2c(c(F)cc3[nH]ccc23)Oc2ccc(F)c(c2)-c2nc1nn2C (single isomer, unassigned) [Compound 16B, (E)-3-[3-[22,28-difluoro-3,10,10-trimethyl-12,12-dioxo-6-(trideuteriomethyl)-24-oxa-12lambda6-thia-3,4,19,30-tetrazapentacyclo[23.3.1.12,5.015,23.016,20]triaconta-1(29),2(30),4,15,17,20,22,25,27-nonaen-6-yl]phenyl]-2-methyl-prop-2-enoic acid]
DSLS 3D (100 μM ΔT) (NBD1): C (a value greater than 10 °C and less than or equal to 25 °C is marked “C”) | TECC (AUC, 10 μM) (CFTR): A (a TECC value less than 12 is marked “A”)

Cn1nc2nc1-c1cc(ccc1F)Oc1c(F)cc3[nH]ccc3c1Cn1cc(cn1)C(C)(C)S(=O)(=O)CCCC2(C)c1cccc(CCC(=O)O)c1 (stereo not shown) [Compound 111, 3-[3-(24,30-Difluoro-3,6,11,11-tetramethyl-10,10-dioxo-26-oxa-10λ6-thia-3,4,14,15,21,33-hexazahexacyclo[25.3.1.12,5.112,15.017,25.018,22]-tritriaconta-1(31),2(33),4,12(32),13,17,19,22,24,27,29-undecaen-6-yl)phenyl]propanoic Acid]
DSLS 3D (100 μM ΔT) (NBD1): C (a value greater than 10 °C and less than or equal to 25 °C is marked “C”) | TECC (AUC, 10 μM) (CFTR): B (a value between 12-20 is marked “B”)

C[C@@H](Cc1cccc(C2(C)CCCCCS(=O)(=O)CCc3c(c(F)cc4[nH]ccc34)Oc3ccnc(c3)-c3nc2nn3C)c1)C(=O)O (single isomer, unassigned) [Compound 261B]
DSLS 3D (100 μM ΔT) (NBD1): A (an ΔTagg value less than or equal to 5 °C is marked “A”) | TECC (AUC, 10 μM) (CFTR): A (a TECC value less than 12 is marked “A”)

C[C@@H](Cc1cccc([C@@]2(C)CCCC(C)(C)CS(=O)(=O)CCc3c(c(F)cc4[nH]ccc34)Sc3ccc(F)c(c3)-c3nc2cs3)c1)C(=O)O [Compound 240, (2S)-3-[3-[(6R)-22,28-difluoro-6,10,10-trimethyl-12,12-dioxo-3,12λ6,24-trithia-19,30-diazapentacyclo[23.3.1.12,5.015,23.016,20]triaconta-1(29),2(30),4,15,17,20,22,25,27-nonaen-6-yl]phenyl]-2-methyl-propanoic Acid]
DSLS 3D (100 μM ΔT) (NBD1): B (a value above 5 °C and less than or equal to 10 °C is marked “B”) | TECC (AUC, 10 μM) (CFTR): A (a TECC value less than 12 is marked “A”)

Cn1nc2nc1-c1cc(ccn1)[S+]([O-])c1c(F)cc3[nH]ccc3c1CCS(=O)(=O)CC(C)(C)CCC[C@]2(C)c1cccc(CC(C)(C)C(=O)O)c1 (stereo partly drawn) [Compound 278, 3-[3-[(6R)-22-fluoro-3,6,10,10-tetramethyl-12,12,24-trioxo-12λ6,24λ4-dithia-3,4,19,28,30-pentazapentacyclo[23.3.1.12,5.015,23.016,20]triaconta-1(29),2(30),4,15,17,20,22,25,27-nonaen-6-yl]phenyl]-2,2-dimethyl-propanoic Acid]
DSLS 3D (100 μM ΔT) (NBD1): C (a value greater than 10 °C and less than or equal to 25 °C is marked “C”) | TECC (AUC, 10 μM) (CFTR): C (a value between 20 and 80 is marked “C”)

Cn1nc2nc1-c1cc(ccc1F)Oc1c(F)cc3[nH]ccc3c1CCS(=O)(=O)CC(C)(C)CCCC2(C)c1cccc(CCO)c1 (single isomer, unassigned) [Compound 4A, 2-[3-(22,28-Difluoro-3,6,10,10-tetramethyl-12,12-dioxo-24-oxa-12λ^6-thia-3,4,19,30-tetrazapentacyclo[23.3.1.1^2,5.0^15,23.0^16,20]triaconta-1(29),2(30),4,15,17,20,22,25,27-nonaen-6-yl)phenyl]ethanol]
DSLS 3D (100 μM ΔT) (NBD1): C (a value greater than 10 °C and less than or equal to 25 °C is marked “C”) | TECC (AUC, 10 μM) (CFTR): C (a value between 20 and 80 is marked “C”)

Cn1nc2nc1-c1cc(ccc1F)Oc1c(F)cc3[nH]ccc3c1Cn1cc(cn1)C(C)(C)CS(=O)(=O)CCC2(C)c1cccc(CCC(=O)O)c1 (single isomer, unassigned) [Compound 109B, 3-[3-(24,30-difluoro-3,6,11,11-tetramethyl-9,9-dioxo-26-oxa-9lambda6-thia-3,4,14,15,21,33-hexazahexacyclo[25.3.1.12,5.112,15.017,25.018,22]tritriaconta-1(31),2(33),4,12(32),13,17,19,22,24,27,29-undecaen-6-yl)phenyl]propanoic Acid]
DSLS 3D (100 μM ΔT) (NBD1): A (an ΔTagg value less than or equal to 5 °C is marked “A”) | TECC (AUC, 10 μM) (CFTR): A (a TECC value less than 12 is marked “A”)

Cn1nc2nc1-c1cc(ccn1)C(=O)c1c(F)cc3[nH]ccc3c1CCS(=O)(=O)CC(C)(C)CCC[C@]2(C)c1cccc(CC(=O)O)c1 [Compound 247, 2-[3-[(6R)-22-fluoro-3,6,10,10-tetramethyl-12,12,24-trioxo-12λ6-thia-3,4,19,28,30-pentazapentacyclo[23.3.1.12,5.015,23.016,20]triaconta-1(29),2(30),4,15,17,20,22,25,27-nonaen-6-yl]phenyl]acetic Acid]
DSLS 3D (100 μM ΔT) (NBD1): C (a value greater than 10 °C and less than or equal to 25 °C is marked “C”) | TECC (AUC, 10 μM) (CFTR): C (a value between 20 and 80 is marked “C”)

CC1(c2cccc(CCC(=O)O)c2)CCCC2(CC2)CS(=O)(=O)CCc2c(c(F)cc3[nH]ccc23)Oc2ccc(F)c(c2)-c2ncc1[nH]2 (single isomer, unassigned) [Compound 45B, 3-[3-(22,28-difluoro-6-methyl-12,12-dioxo-spiro [24-oxa-12lambda6-thia-3,19,30-triazapentacyclo[23.3.1.12, 5.015,23.016,20]triaconta-1(29),2,4,15,17,20,22,25,27-nonaene-10,1′-cyclopropane]-6-yl)phenyl]propanoic acid]
DSLS 3D (100 μM ΔT) (NBD1): C (a value greater than 10 °C and less than or equal to 25 °C is marked “C”) | TECC (AUC, 10 μM) (CFTR): A (a TECC value less than 12 is marked “A”)

C[C@@H](Cc1cccc(C2(C)CCCC(C)(C)CS(=O)(=O)CCc3c(c(F)cc4[nH]ccc34)Oc3ccc(F)c(c3)-c3nc2nn3C)c1)C(=O)OCOC(=O)C(C)(C)C (single isomer, unassigned) [Compound 145]
DSLS 3D (100 μM ΔT) (NBD1): A (an ΔTagg value less than or equal to 5 °C is marked “A”) | TECC (AUC, 10 μM) (CFTR): C (a value between 20 and 80 is marked “C”)
